Reference: patent publication US20130005676A1 (UNIVERSITY OF ROCHESTER, priority 2009, published 2013)
Entries after “also recorded” stand apart in the source; their conditions may differ.

What was measured:
[1] = test system: mice with inflammatory pain (CFA); assay: Inflammatory pain (CFA in paw): mechanical allodynia (Von Frey) and thermal hyperalgesia; type: in vivo
From the text: Peripheral inflammation was induced by injection of Complete Freud Adjuvant (CFA, mixed with an equal amount of oil, […], Jackson labs) (Raghavendra et al., “Complete Freunds Adjuvant-Induced Peripheral Inflammation Evokes Glial Activation and Proinflammatory Cytokine Expression in the CNS,” Eur. J. Neurosci. 20:467-473 (2004), which is hereby incorporated by reference in its entirety). […] Neuropathic pain was induced by ligation of the sciatic nerve with 4.0 polypropylene suture in mice sedated with ketamine (60 mg/kg, i.p.) and xylazine (10 mg/kg, i.p.) (Bennett et al., “A Peripheral Mononeuropathy in Rat that Produces Disorders of Pain Sensation Like Those Seen in Man,” Pain 33:87-107 (1988); Martucci et al., “The Purinergic Antagonist PPADS Reduces Pain Related Behaviours and Interleukin-1 beta, Interleukin-6, iNOS and nNOS Overproduction in Central and Peripheral Nervous System After Peripheral Neuropathy in Mice,” Pain 137:81-95 (2008), which are hereby incorporated by reference in their entirety).
Mechanical allodynia was evaluated using repeated stimulations with a Von Frey filament exerting 0.02 grams of force onto the plantar surface (Colburn et al., “The Effect of Site and Type of Nerve Injury on Spinal Glial Activation and Neuropathic Pain Behavior,” Exp. Neurol. 157:289-304. (1999), which is hereby incorporated by reference in its entirety). The percentage of negative responses of a total of 10 trials was calculated for each foot. Thermal hyperalgesia was assessed using an Analgesymeter (Ugo Basile, Comerio, Italy) (Stein et al., “Intrinsic Mechanisms of Antinociception in Inflammation: Local Opioid Receptors and Beta-Endorphin,” J. Neurosci. 10:1292-1298 (1990), which is hereby incorporated by reference in its entirety). In short, a mobile radiant heat source was focused on the hind paw, and the paw withdrawal latencies were defined as the time taken by the mouse to remove its hind paw from the heat source (max 20 sec to avoid tissue damage). The paw withdrawal was repeated three times for each foot and the average calculated. To avoid conditioning to stimulation a 5 min rest period was interposed between each trial in both thermal and mechanical tests. Behavioral parameters were evaluated prior to intraplantar injection of CFA or nerve ligation (i.e. day 0), and again on day 3-4 in mice receiving the CFA injection, and at day 5-7 in mice with nerve ligation unless otherwise noted. Prior to injection of CCPA, saline, or acupuncture in the Zusanli point, the mice were placed in a restraining under light isoflurane anesthesia (˜1%). The total duration of anesthesia was ˜2 min and mice with inflammatory, neurogenic pain, and their controls were treated similarly. 2-chloro-N6-cyclopentyl-adenosine (CCPA, 0.1 mM, 20 μl) was injected in the Zusanli point ˜5 min before acupuncture. […] The needle was slowly rotated ˜2 time (˜20-30 sec) every 5 min for a total of 30 min during an acupuncture session. A microdialysis probe (MD-2211, Bioanalytical systems, West Lafayette, Ind.) was implanted 1-3 hrs prior to collection of microdialysis samples. The microdialysis probe was implanted in a distance of 0.4-0.6 mm from the Zusanli point. The microdialysis probe was perfused with Ringer's solution at a rate of 1 μl per minute. The microdialysates were collected on ice and the perfusate collected over a 30 min period (30 μl) was immediately frozen at −80° C. until HPLC analysis. Deoxycoformycin was administered in a dose of 50 mg/kg i.p. 30 min prior to acupuncture.

[2] = test system: mice with neuropathic pain; assay: Neuropathic pain (sciatic nerve ligation): mechanical allodynia and thermal hyperalgesia; type: in vivo; settings: WT mice, combined with acupuncture
Description: Peripheral inflammation was induced by injection of Complete Freud Adjuvant (CFA, mixed with an equal amount of oil, total volume 0.1 ml) in the plantar surface of the left hind paw of mice (25-30 g, Jackson labs) (Raghavendra et al., “Complete Freunds Adjuvant-Induced Peripheral Inflammation Evokes Glial Activation and Proinflammatory Cytokine Expression in the CNS,” Eur. J. Neurosci. 20:467-473 (2004), which is hereby incorporated by reference in its entirety). An equal amount of saline (0.1 ml) was injected in the right hind paw as control. Neuropathic pain was induced by ligation of the sciatic nerve with 4.0 polypropylene suture in mice sedated with ketamine (60 mg/kg, i.p.) and xylazine (10 mg/kg, i.p.) (Bennett et al., “A Peripheral Mononeuropathy in Rat that Produces Disorders of Pain Sensation Like Those Seen in Man,” Pain 33:87-107 (1988); Martucci et al., “The Purinergic Antagonist PPADS Reduces Pain Related Behaviours and Interleukin-1 beta, Interleukin-6, iNOS and nNOS Overproduction in Central and Peripheral Nervous System After Peripheral Neuropathy in Mice,” Pain 137:81-95 (2008), which are hereby incorporated by reference in their entirety).
Mechanical allodynia was evaluated using repeated stimulations with a Von Frey filament exerting 0.02 grams of force onto the plantar surface (Colburn et al., “The Effect of Site and Type of Nerve Injury on Spinal Glial Activation and Neuropathic Pain Behavior,” Exp. Neurol. 157:289-304. (1999), which is hereby incorporated by reference in its entirety). The percentage of negative responses of a total of 10 trials was calculated for each foot. Thermal hyperalgesia was assessed using an Analgesymeter (Ugo Basile, Comerio, Italy) (Stein et al., “Intrinsic Mechanisms of Antinociception in Inflammation: Local Opioid Receptors and Beta-Endorphin,” J. Neurosci. 10:1292-1298 (1990), which is hereby incorporated by reference in its entirety). In short, a mobile radiant heat source was focused on the hind paw, and the paw withdrawal latencies were defined as the time taken by the mouse to remove its hind paw from the heat source (max 20 sec to avoid tissue damage). The paw withdrawal was repeated three times for each foot and the average calculated. To avoid conditioning to stimulation a 5 min rest period was interposed between each trial in both thermal and mechanical tests. Behavioral parameters were evaluated prior to intraplantar injection of CFA or nerve ligation (i.e. day 0), and again on day 3-4 in mice receiving the CFA injection, and at day 5-7 in mice with nerve ligation unless otherwise noted. Prior to injection of CCPA, saline, or acupuncture in the Zusanli point, the mice were placed in a restraining under light isoflurane anesthesia (˜1%). […]

[3] = test system: mice with inflammatory or neuropathic pain; assay: Statements covering both inflammatory and neuropathic pain models; type: in vivo; settings: 50 mg/kg i.p. 30 min prior to 30 min acupuncture; vehicle + acupuncture ~[…]
Description: Peripheral inflammation was induced by injection of Complete Freud Adjuvant (CFA, mixed with an equal amount of oil, total volume 0.1 ml) in the plantar surface of the left hind paw of mice (25-30 g, Jackson labs) (Raghavendra et al., “Complete Freunds Adjuvant-Induced Peripheral Inflammation Evokes Glial Activation and Proinflammatory Cytokine Expression in the CNS,” Eur. J. Neurosci. 20:467-473 (2004), which is hereby incorporated by reference in its entirety). An equal amount of saline (0.1 ml) was injected in the right hind paw as control. […]
Mechanical allodynia was evaluated using repeated stimulations with a Von Frey filament exerting 0.02 grams of force onto the plantar surface (Colburn et al., “The Effect of Site and Type of Nerve Injury on Spinal Glial Activation and Neuropathic Pain Behavior,” Exp. Neurol. 157:289-304. (1999), which is hereby incorporated by reference in its entirety). The percentage of negative responses of a total of 10 trials was calculated for each foot. Thermal hyperalgesia was assessed using an Analgesymeter (Ugo Basile, Comerio, Italy) (Stein et al., “Intrinsic Mechanisms of Antinociception in Inflammation: Local Opioid Receptors and Beta-Endorphin,” J. Neurosci. 10:1292-1298 (1990), which is hereby incorporated by reference in its entirety). […] The paw withdrawal was repeated three times for each foot and the average calculated. […] Behavioral parameters were evaluated prior to intraplantar injection of CFA or nerve ligation (i.e. day 0), and again on day 3-4 in mice receiving the CFA injection, and at day 5-7 in mice with nerve ligation unless otherwise noted. […]

[4] = test system: AMP deaminase; assay: HPLC analysis of AMP degradation in muscle/subcutis sections from the Zusanli point; type: biochemical, mice; settings: 200 μM, tissue incubated in 1 mM AMP for 45 min
Description: The analysis of enzymatic degradation of purines was based on sections (400 μm) of skeletal muscles with overlying subcutis harvested from tissue in the Zusanli point. Each section per well was placed into a 6-well plate with 2 ml (in a phosphate-free buffer (in mM: 2 CaCl2, 120 NaCl, 5 KCL, 10 Glucose, 20 HEPES, pH=7.3) and bubble with 100% O2 containing 1 mM AMP with or without 500 μM deoxycoformycin (Tocris Bioscience, UK). The samples were collected from each well at 0 and 45 min and stored at −80° C. for HPLC analysis. The analyses were carried out on an ESA reverse-phase H584 HPLC system (ESA Inc., USA) and an ESA model 526 UV detector (ESA Inc.) as previously described (Cui et al., “The Organic Cation Transporter-3 is a Pivotal Modulator of Neurodegeneration in the Nigrostriatal Dopaminergic Pathway,” Proc. Nat'l. Acad. Sci. USA 106:8043-8048 (2009); Volonte et al., “Development of an HPLC Method for Determination of Metabolic Compounds in Myocardial Tissue,” J. Pharm. Biomed. Anal. 35:647-653 (2004), which are hereby incorporated by reference in their entirety). Chromatographic separation was achieved by using a Lichrospher® 100 RP-18 column (5 μm, 250 mm×3 mm; Merck, Germany). […] Eluted purines were detected at 260 nm, and the chromatographic peaks were integrated using CoulArray software.

[5] = test system: inflammatory pain, rat formalin test; settings: local injection; cited from earlier work
[6] = test system: wild type mice; assay: Touch sensitivity (Von Frey filaments) after injection in the Zusanli point of wild type mice; type: in vivo; settings: 5 mM injected in Zusanli point, tested one hour after injection
Description: Using Von Frey Filaments, a baseline for pain threshold was established in the wild type. The mice were then injected with 5 mM of dibut 1-cAMP (db-cAMP) in the zunsanli accu-point. To ensure the proper spread of db cAMP, the mice were tested for pain one hour after injections and assessed for touch sensitivity. The experiment was repeated in the same animals 24 h later and yielded similar results.
Mechanical allodynia was evaluated using repeated stimulations with a Von Frey filament exerting 0.02 grams of force onto the plantar surface (Colburn et al., “The Effect of Site and Type of Nerve Injury on Spinal Glial Activation and Neuropathic Pain Behavior,” Exp. Neurol. 157:289-304. (1999), which is hereby incorporated by reference in its entirety). The percentage of negative responses of a total of 10 trials was calculated for each foot. Thermal hyperalgesia was assessed using an Analgesymeter (Ugo Basile, Comerio, Italy) (Stein et al., “Intrinsic Mechanisms of Antinociception in Inflammation: Local Opioid Receptors and Beta-Endorphin,” J. Neurosci. 10:1292-1298 (1990), which is hereby incorporated by reference in its entirety). […] The paw withdrawal was repeated three times for each foot and the average calculated. […]

SMILES	tactile or thermal sensitivity when not combined with acupuncture ([1]; CFA, no acupuncture)	effect on duration of acupuncture pain relief, mechanical and thermal stimulation ([1]; WT mice, combined with acupuncture)	effect on duration of acupuncture pain relief, mechanical and thermal stimulation [2]	duration of suppression of mechanical allodynia and thermal pain [3] [h]	reduction of AMP conversion to IMP [4] [%]	reduction of AMP conversion to IMP ([4]; listed as Deoxycoformycin)	pain relief on co-administration with an adenosine kinase inhibitor [5]	sensitivity to touch [6]
OC[C@H]1O[C@@H](n2cnc3c2NC=NC[C@H]3O)C[C@@H]1O [deoxycoformycin]	does not alter the pain sensitivity; also recorded: no effect	prolonged	prolonged	~3.0	~50	approximately 50%	augmented the pain relief	–
CCCC(=O)Nc1ncnc2c1ncn2[C@@H]1O[C@@H]2COP(=O)(O)O[C@H]2[C@H]1OC(=O)CCC [dibutyryl cAMP]	–	–	–	–	–	–	–	increased transiently
